From ChEMBL document CHEMBL4765227, “Hit to lead optimization of a series of N-[4-(1,3-benzothiazol-2-yl)phenyl]acetamides as monoacylglycerol lipase inhibitors with potential anticancer activity” (Eur J Med Chem, 2016)

How the values were obtained:
Format in all cases: functional
Details in all cases: read-out: GI
[1] = tested on: MDA-MB-468; assay: Growth inhibition of human MDA-MB-468 cells at 10 uM incubated for 48 hrs by sulforhodamine B assay relative to control
[2] = tested on: MDA-MB-231; assay: Growth inhibition of human MDA-MB-231 cells at 10 uM incubated for 48 hrs by sulforhodamine B assay relative to control
[3] = tested on: ACHN; assay: Growth inhibition of human ACHN cells at 10 uM incubated for 48 hrs by sulforhodamine B assay relative to control
[4] = tested on: M14; assay: Growth inhibition of human M14 cells at 10 uM incubated for 48 hrs by sulforhodamine B assay relative to control
[5] = tested on: SF-268; assay: Growth inhibition of human SF-268 cells at 10 uM incubated for 48 hrs by sulforhodamine B assay relative to control
[6] = tested on: HCT-15; assay: Growth inhibition of human HCT-15 cells at 10 uM incubated for 48 hrs by sulforhodamine B assay relative to control
[7] = tested on: CCRF-CEM; assay: Growth inhibition of human CCRF-CEM cells at 10 uM incubated for 48 hrs by sulforhodamine B assay relative to control
[8] = tested on: PC-3; assay: Growth inhibition of human PC-3 cells at 10 uM incubated for 48 hrs by sulforhodamine B assay relative to control
[9] = tested on: A549; assay: Growth inhibition of human A549/ATCC cells at 10 uM incubated for 48 hrs by sulforhodamine B assay relative to control
[10] = tested on: SNB-19; assay: Growth inhibition of human SNB-19 cells at 10 uM incubated for 48 hrs by sulforhodamine B assay relative to control
[11] = tested on: HCT-116; assay: Growth inhibition of human HCT-116 cells at 10 uM incubated for 48 hrs by sulforhodamine B assay relative to control
[12] = tested on: Hs-578T; assay: Growth inhibition of human Hs-578T cells at 10 uM incubated for 48 hrs by sulforhodamine B assay relative to control
[13] = tested on: MDA-MB-435; assay: Growth inhibition of human MDA-MB-435 cells at 10 uM incubated for 48 hrs by sulforhodamine B assay relative to control
[14] = tested on: OVCAR-5; assay: Growth inhibition of human OVCAR-5 cells at 10 uM incubated for 48 hrs by sulforhodamine B assay relative to control
[15] = tested on: SW-620; assay: Growth inhibition of human SW-620 cells at 10 uM incubated for 48 hrs by sulforhodamine B assay relative to control
[16] = tested on: UACC-62; assay: Growth inhibition of human UACC-62 cells at 10 uM incubated for 48 hrs by sulforhodamine B assay relative to control
[17] = tested on: T47D; assay: Growth inhibition of human T47D cells at 10 uM incubated for 48 hrs by sulforhodamine B assay relative to control
[18] = tested on: NCI-H322M; assay: Growth inhibition of human NCI-H322M cells at 10 uM incubated for 48 hrs by sulforhodamine B assay relative to control
[19] = tested on: RXF 393; assay: Growth inhibition of human RXF 393 cells at 10 uM incubated for 48 hrs by sulforhodamine B assay relative to control
[20] = tested on: HOP-92; assay: Growth inhibition of human HOP-92 cells at 10 uM incubated for 48 hrs by sulforhodamine B assay relative to control
[21] = tested on: KM12; assay: Growth inhibition of human KM12 cells at 10 uM incubated for 48 hrs by sulforhodamine B assay relative to control
[22] = tested on: RPMI-8226; assay: Growth inhibition of human RPMI-8226 cells at 10 uM incubated for 48 hrs by sulforhodamine B assay relative to control
[23] = tested on: NCI-H460; assay: Growth inhibition of human NCI-H460 cells at 10 uM incubated for 48 hrs by sulforhodamine B assay relative to control
[24] = tested on: SN12C; assay: Growth inhibition of human SN12C cells at 10 uM incubated for 48 hrs by sulforhodamine B assay relative to control
[25] = tested on: TK-10; assay: Growth inhibition of human TK-10 cells at 10 uM incubated for 48 hrs by sulforhodamine B assay relative to control
[26] = tested on: OVCAR-8; assay: Growth inhibition of human OVCAR-8 cells at 10 uM incubated for 48 hrs by sulforhodamine B assay relative to control
[27] = tested on: HT-29; assay: Growth inhibition of human HT-29 cells at 10 uM incubated for 48 hrs by sulforhodamine B assay relative to control
[28] = tested on: SR; assay: Growth inhibition of human SR cells at 10 uM incubated for 48 hrs by sulforhodamine B assay relative to control
[29] = tested on: SK-MEL-5; assay: Growth inhibition of human SK-MEL-5 cells at 10 uM incubated for 48 hrs by sulforhodamine B assay relative to control
[30] = tested on: UO-31; assay: Growth inhibition of human UO-31 cells at 10 uM incubated for 48 hrs by sulforhodamine B assay relative to control
[31] = tested on: SF-295; assay: Growth inhibition of human SF-295 cells at 10 uM incubated for 48 hrs by sulforhodamine B assay relative to control
[32] = tested on: HL-60(TB); assay: Growth inhibition of human HL-60(TB) cells at 10 uM incubated for 48 hrs by sulforhodamine B assay relative to control
[33] = tested on: NCI-H522; assay: Growth inhibition of human NCI-H522 cells at 10 uM incubated for 48 hrs by sulforhodamine B assay relative to control
[34] = tested on: LOX IMVI; assay: Growth inhibition of human LOX IMVI cells at 10 uM incubated for 48 hrs by sulforhodamine B assay relative to control
[35] = tested on: U-251; assay: Growth inhibition of human U-251 cells at 10 uM incubated for 48 hrs by sulforhodamine B assay relative to control
[36] = tested on: OVCAR-4; assay: Growth inhibition of human OVCAR-4 cells at 10 uM incubated for 48 hrs by sulforhodamine B assay relative to control
[37] = tested on: SK-OV-3; assay: Growth inhibition of human SK-OV-3 cells at 10 uM incubated for 48 hrs by sulforhodamine B assay relative to control
[38] = tested on: COLO 205; assay: Growth inhibition of human COLO 205 cells at 10 uM incubated for 48 hrs by sulforhodamine B assay relative to control
[39] = tested on: SF-539; assay: Growth inhibition of human SF-539 cells at 10 uM incubated for 48 hrs by sulforhodamine B assay relative to control
[40] = tested on: DU-145; assay: Growth inhibition of human DU-145 cells at 10 uM incubated for 48 hrs by sulforhodamine B assay relative to control
[41] = tested on: UACC-257; assay: Growth inhibition of human UACC-257 cells at 10 uM incubated for 48 hrs by sulforhodamine B assay relative to control
[42] = tested on: HCC 2998; assay: Growth inhibition of human HCC 2998 cells at 10 uM incubated for 48 hrs by sulforhodamine B assay relative to control
[43] = tested on: NCI-H23; assay: Growth inhibition of human NCI-H23 cells at 10 uM incubated for 48 hrs by sulforhodamine B assay relative to control
[44] = tested on: NCI-H226; assay: Growth inhibition of human NCI-H226 cells at 10 uM incubated for 48 hrs by sulforhodamine B assay relative to control

Q: Which results are given for `O=C(Cn1ccnc1)Nc1ccc(-c2nc3ccccc3s2)cc1`?
A: inhibition of growth at 10 µM [1]: 99.2%; inhibition of growth at 10 µM [2]: 19.9%; inhibition of growth at 10 µM [3]: 9.7%; inhibition of growth at 10 µM [4]: 5.59%; inhibition of growth at 10 µM [5]: 18.9%; inhibition of growth at 10 µM [6]: 13%; inhibition of growth at 10 µM [7]: 30.9%; inhibition of growth at 10 µM [8]: 34.1%; inhibition of growth at 10 µM [9]: 29.7%; inhibition of growth at 10 µM [10]: 23.6%; inhibition of growth at 10 µM [11]: 31.9%; inhibition of growth at 10 µM [12]: 13.1%; inhibition of growth at 10 µM [13]: 18.4%; inhibition of growth at 10 µM [14]: -3.81%; inhibition of growth at 10 µM [15]: 0.17%; inhibition of growth at 10 µM [16]: 17.1%; inhibition of growth at 10 µM [17]: 48.6%; inhibition of growth at 10 µM [18]: 1.71%; inhibition of growth at 10 µM [19]: -2.19%; inhibition of growth at 10 µM [20]: 24.2%; inhibition of growth at 10 µM [21]: 15.6%; inhibition of growth at 10 µM [22]: 48%; inhibition of growth at 10 µM [23]: 20.2%; inhibition of growth at 10 µM [24]: 15.4%; inhibition of growth at 10 µM [25]: 18.2%; inhibition of growth at 10 µM [26]: 19.7%; inhibition of growth at 10 µM [27]: 6.65%; inhibition of growth at 10 µM [28]: 63.5%; inhibition of growth at 10 µM [29]: 60.8%; inhibition of growth at 10 µM [30]: 39.6%; inhibition of growth at 10 µM [31]: 34.5%; inhibition of growth at 10 µM [32]: 22.7%; inhibition of growth at 10 µM [33]: 25.3%; inhibition of growth at 10 µM [34]: 26.6%; inhibition of growth at 10 µM [35]: 28.1%; inhibition of growth at 10 µM [36]: 65.2%; inhibition of growth at 10 µM [37]: 12.2%; inhibition of growth at 10 µM [38]: 19.2%; inhibition of growth at 10 µM [39]: 18.7%; inhibition of growth at 10 µM [40]: 18.9%; inhibition of growth at 10 µM [41]: 32.4%; inhibition of growth at 10 µM [42]: 5.1%; inhibition of growth at 10 µM [43]: 42.6%; inhibition of growth at 10 µM [44]: 33.4%
